Values after ≈ are worked out from the molar mass of the structure shown. Active and inactive are the calls of the source. The calls are words filed in the database; no cut-off is given here.
How the values were obtained:
Format in all cases: functional
[1] = system: Staphylococcus aureus; test: Antimicrobial activity against Methicillin susceptible Staphylococcus aureus 243/7 by twofold dilution technique
[2] = system: Staphylococcus aureus; test: Antimicrobial activity against methicillin-resistant Staphylococcus aureus 236/7 by twofold dilution technique
[3] = system: Staphylococcus epidermidis; test: Antimicrobial activity against Staphylococcus epidermidis ATCC 12228 by twofold dilution technique
[4] = system: Staphylococcus aureus; test: Antimicrobial activity against Staphylococcus aureus ATCC 6538 after 18 hrs by twofold dilution technique; conditions: ATCC 6538, 18 h
[5] = system: Staphylococcus aureus; test: Antimicrobial activity against Methicillin susceptible Staphylococcus aureus 208/7 by twofold dilution technique
[6] = system: Staphylococcus aureus; test: Antimicrobial activity against Methicillin susceptible Staphylococcus aureus 239/7 by twofold dilution technique
[7] = system: Staphylococcus aureus; test: Antimicrobial activity against Methicillin susceptible Staphylococcus aureus 213/7 by twofold dilution technique
[8] = system: Micrococcus luteus; test: Antimicrobial activity against Micrococcus luteus ATCC 9341 at 400 ug after 18 hrs by disk diffusion method
[9] = system: Micrococcus luteus; test: Antimicrobial activity against Micrococcus luteus ATCC 10240 by twofold dilution technique
[10] = system: Staphylococcus aureus; test: Antimicrobial activity against methicillin-resistant Staphylococcus aureus 146/6 by twofold dilution technique
[11] = system: Staphylococcus aureus; test: Antimicrobial activity against methicillin-resistant Staphylococcus aureus 141/6 by twofold dilution technique
[12] = system: Staphylococcus aureus; test: Antimicrobial activity against Methicillin susceptible Staphylococcus aureus 206/7 by twofold dilution technique
[13] = system: Staphylococcus aureus; test: Antimicrobial activity against Staphylococcus aureus ATCC 25923 after 18 hrs by twofold dilution technique; conditions: ATCC 25923, 18 h
[14] = system: Bacillus subtilis; test: Antimicrobial activity against Bacillus subtilis ATCC 6633 at 400 ug after 18 hrs by disk diffusion method; conditions: ATCC 6633, 18 h, read-out: DIZ
[15] = system: Staphylococcus aureus; test: Antimicrobial activity against Staphylococcus aureus NCTC 4163 after 18 hrs by twofold dilution technique; conditions: NCTC 4163, 18 h
[16] = system: Staphylococcus aureus; test: Antimicrobial activity against methicillin-resistant Staphylococcus aureus 140/6 by twofold dilution technique
[17] = system: Staphylococcus aureus; test: Antimicrobial activity against methicillin-resistant Staphylococcus aureus 218/7 by twofold dilution technique
[18] = system: Staphylococcus aureus; test: Antimicrobial activity against Methicillin susceptible Staphylococcus aureus 238/7 by twofold dilution technique
[19] = system: Staphylococcus aureus; test: Antimicrobial activity against methicillin-resistant Staphylococcus aureus 217/7 by twofold dilution technique
[20] = system: Staphylococcus aureus; test: Antimicrobial activity against Methicillin susceptible Staphylococcus aureus 242/7 by twofold dilution technique
[21] = system: Staphylococcus aureus; test: Antimicrobial activity against methicillin-resistant Staphylococcus aureus 143/6 by twofold dilution technique
[22] = system: Staphylococcus epidermidis; test: Antimicrobial activity against Staphylococcus epidermidis ATCC 12228 at 400 ug after 18 hrs by disk diffusion method; conditions: ATCC 12228, 18 h, read-out: DIZ
[23] = system: Staphylococcus aureus; test: Antimicrobial activity against methicillin-resistant Staphylococcus aureus 144/6 by twofold dilution technique
[24] = system: Staphylococcus aureus; test: Antimicrobial activity against methicillin-resistant Staphylococcus aureus 136/6 by twofold dilution technique
[25] = system: Enterococcus hirae; test: Antimicrobial activity against Enterococcus hirae ATCC 10541 after 18 hrs by twofold dilution technique; conditions: ATCC 10541, 18 h
[26] = system: Bacillus subtilis; test: Antimicrobial activity against Bacillus subtilis ATCC 6633 after 18 hrs by twofold dilution technique; conditions: ATCC 6633, 18 h
[27] = system: Micrococcus luteus; test: Antimicrobial activity against Micrococcus luteus ATCC 10240 at 400 ug after 18 hrs by disk diffusion method; conditions: ATCC 10240, 18 h, read-out: DIZ
[28] = system: Staphylococcus aureus; test: Antimicrobial activity against Staphylococcus aureus ATCC 6538 at 400 ug after 18 hrs by disk diffusion method; conditions: ATCC 6538, 18 h, read-out: DIZ
[29] = system: Staphylococcus aureus; test: Antimicrobial activity against Staphylococcus aureus NCTC 4163 at 400 ug after 18 hrs by disk diffusion method; conditions: NCTC 4163, 18 h, read-out: DIZ
[30] = system: Staphylococcus aureus; test: Antimicrobial activity against Staphylococcus aureus ATCC 29213 after 18 hrs by twofold dilution technique; conditions: ATCC 29213, 18 h
[31] = system: Staphylococcus aureus; test: Antimicrobial activity against Methicillin susceptible Staphylococcus aureus 237/7 by twofold dilution technique
[32] = system: Enterococcus hirae; test: Antimicrobial activity against Enterococcus hirae ATCC 10541 at 400 ug after 18 hrs by disk diffusion method
[33] = system: Micrococcus luteus; test: Antimicrobial activity against Micrococcus luteus ATCC 9341 after 18 hrs by twofold dilution technique; conditions: ATCC 9341, 18 h
[34] = system: Staphylococcus aureus; test: Antimicrobial activity against Staphylococcus aureus ATCC 25923 at 400 ug after 18 hrs by disk diffusion method; conditions: ATCC 25923, 18 h, read-out: DIZ
[35] = system: Staphylococcus aureus; test: Antimicrobial activity against Methicillin susceptible Staphylococcus aureus 207/7 by twofold dilution technique
[36] = system: Bacillus cereus; test: Antimicrobial activity against Bacillus cereus ATCC 11778 at 400 ug after 18 hrs by disk diffusion method; conditions: ATCC 11778, 18 h, read-out: DIZ
[37] = system: Staphylococcus aureus; test: Antimicrobial activity against Methicillin susceptible Staphylococcus aureus 212/7 by twofold dilution technique
[38] = system: Staphylococcus aureus; test: Antimicrobial activity against Staphylococcus aureus ATCC 29213 at 400 ug after 18 hrs by disk diffusion method; conditions: ATCC 29213, 18 h, read-out: DIZ
[39] = system: Bacillus cereus; test: Antimicrobial activity against Bacillus cereus ATCC 11778 after 18 hrs by twofold dilution technique; conditions: ATCC 11778, 18 h
[40] = system: Staphylococcus aureus; test: Antimicrobial activity against methicillin-resistant Staphylococcus aureus 200/7 by twofold dilution technique

COc1ccc2[nH]cc(CCN/C=C3\C(=O)C(O)=C(C(C)C)c4cc(C)c(-c5c(C)cc6c(c5O)/C(=C/NCCc5c[nH]c7ccc(OC)cc57)C(=O)C(O)=C6C(C)C)c(O)c43)c2c1
MIC [1]: 100 µg/mL (≈ 116 µM) | MIC [2]: 100 µg/mL (≈ 116 µM) | MIC [3]: 200 µg/mL (≈ 232 µM) | MIC [4]: 50 µg/mL (≈ 57.9 µM) | MIC [5]: 100 µg/mL (≈ 116 µM) | MIC [6]: 100 µg/mL (≈ 116 µM) | MIC [7]: 100 µg/mL (≈ 116 µM) | zone of inhibition at 400 µg/disc ([8]; ATCC 9341, 18 h, read-out: DIZ): 11 mm | MIC [9]: 100 µg/mL (≈ 116 µM) | MIC [10]: 100 µg/mL (≈ 116 µM) | MIC [11]: 100 µg/mL (≈ 116 µM) | MIC [12]: 100 µg/mL (≈ 116 µM) | MIC [13]: 100 µg/mL (≈ 116 µM) | zone of inhibition at 400 µg/disc [14]: 15 mm | MIC [15]: 100 µg/mL (≈ 116 µM) | MIC [16]: 100 µg/mL (≈ 116 µM) | MIC [17]: 100 µg/mL (≈ 116 µM) | MIC [18]: 100 µg/mL (≈ 116 µM) | MIC [19]: 200 µg/mL (≈ 232 µM) | MIC [20]: 50 µg/mL (≈ 57.9 µM) | MIC [21]: 100 µg/mL (≈ 116 µM) | zone of inhibition at 400 µg/disc [22]: 15 mm | MIC [23]: 200 µg/mL (≈ 232 µM) | MIC [24]: 100 µg/mL (≈ 116 µM) | MIC [25]: 100 µg/mL (≈ 116 µM) | MIC [26]: 200 µg/mL (≈ 232 µM) | zone of inhibition at 400 µg/disc [27]: 15 mm | zone of inhibition at 400 µg/disc [28]: 16 mm | zone of inhibition at 400 µg/disc [29]: 16 mm | MIC [30]: 50 µg/mL (≈ 57.9 µM) | MIC [31]: 100 µg/mL (≈ 116 µM) | zone of inhibition at 400 µg/disc ([32]; ATCC 10541, 18 h, read-out: DIZ): 14 mm | MIC [33]: 100 µg/mL (≈ 116 µM) | zone of inhibition at 400 µg/disc [34]: 15 mm | MIC [35]: 200 µg/mL (≈ 232 µM) | zone of inhibition at 400 µg/disc [36]: 15 mm | MIC [37]: 100 µg/mL (≈ 116 µM) | zone of inhibition at 400 µg/disc [38]: 15 mm | MIC [39]: 100 µg/mL (≈ 116 µM) | MIC [40]: 100 µg/mL (≈ 116 µM)

Cc1cc2c(c(O)c1-c1c(C)cc3c(c1O)/C(=C/NCC1COCCOCCOCCOCCOCCO1)C(=O)C(O)=C3C(C)C)/C(=C/NCC1COCCOCCOCCOCCOCCO1)C(=O)C(O)=C2C(C)C (centres undefined)
MIC [1]: 200 µg/mL (≈ 187 µM) | MIC [2]: 100 µg/mL (≈ 93.5 µM) | MIC [3]: > 400 µg/mL | MIC [4]: 100 µg/mL (≈ 93.5 µM) | MIC [5]: 200 µg/mL (≈ 187 µM) | MIC [6]: 100 µg/mL (≈ 93.5 µM) | MIC [7]: 100 µg/mL (≈ 93.5 µM) | diameter of the inhibition zone (DIZ) [8]: inactive | MIC [9]: 100 µg/mL (≈ 93.5 µM) | MIC [10]: 100 µg/mL (≈ 93.5 µM) | MIC [11]: 100 µg/mL (≈ 93.5 µM) | MIC [12]: 100 µg/mL (≈ 93.5 µM) | MIC [13]: 100 µg/mL (≈ 93.5 µM) | zone of inhibition at 400 µg/disc [14]: 11 mm | MIC [15]: 100 µg/mL (≈ 93.5 µM) | MIC [16]: 100 µg/mL (≈ 93.5 µM) | MIC [17]: 100 µg/mL (≈ 93.5 µM) | MIC [18]: 100 µg/mL (≈ 93.5 µM) | MIC [19]: 200 µg/mL (≈ 187 µM) | MIC [20]: 100 µg/mL (≈ 93.5 µM) | MIC [21]: 100 µg/mL (≈ 93.5 µM) | zone of inhibition at 400 µg/disc [22]: 12 mm | MIC [23]: 100 µg/mL (≈ 93.5 µM) | MIC [24]: 100 µg/mL (≈ 93.5 µM) | MIC [25]: 100 µg/mL (≈ 93.5 µM) | MIC [26]: 200 µg/mL (≈ 187 µM) | zone of inhibition at 400 µg/disc [27]: 14 mm | zone of inhibition at 400 µg/disc [28]: 11 mm | MIC [30]: 100 µg/mL (≈ 93.5 µM) | MIC [31]: 100 µg/mL (≈ 93.5 µM) | diameter of the inhibition zone (DIZ) [32]: inactive | MIC [33]: 100 µg/mL (≈ 93.5 µM) | zone of inhibition at 400 µg/disc [34]: 11 mm | MIC [35]: 200 µg/mL (≈ 187 µM) | zone of inhibition at 400 µg/disc [36]: 11 mm | MIC [37]: 100 µg/mL (≈ 93.5 µM) | zone of inhibition at 400 µg/disc [38]: 11 mm | MIC [39]: 100 µg/mL (≈ 93.5 µM) | MIC [40]: 200 µg/mL (≈ 187 µM)

— ChEMBL document CHEMBL1155271, “Synthesis, crystal structures and antibacterial activity studies of aza-derivatives of phytoalexin from cotton plant--gossypol” (2009)
